Laboratory results: US20170073337A1, “DIHYDROTHIAZINE AND DIHYDROOXAZINE DERIVATIVES HAVING BACE1 INHIBITORY ACTIVITY” (Shionogi & Co., Ltd., priority 2014, published 2017)
Converted amounts (≈) assume the structure as drawn. Where two headings read alike, the source gives them in different places.

Legend:
CYP1A2 = target: T1, CYP1A2 (Homo sapiens, UniProt P05177); assay: CYP inhibition test (CYP1A2); format: in vitro ADME; conditions: pooled human liver microsomes; 7-ethoxyresorufin O-deethylation
T1 construct: The commercially available pooled human liver microsomes are used as an enzyme resource; from tissue; host or cells: pooled human liver microsomes
T1 sequence (P05177 1-516): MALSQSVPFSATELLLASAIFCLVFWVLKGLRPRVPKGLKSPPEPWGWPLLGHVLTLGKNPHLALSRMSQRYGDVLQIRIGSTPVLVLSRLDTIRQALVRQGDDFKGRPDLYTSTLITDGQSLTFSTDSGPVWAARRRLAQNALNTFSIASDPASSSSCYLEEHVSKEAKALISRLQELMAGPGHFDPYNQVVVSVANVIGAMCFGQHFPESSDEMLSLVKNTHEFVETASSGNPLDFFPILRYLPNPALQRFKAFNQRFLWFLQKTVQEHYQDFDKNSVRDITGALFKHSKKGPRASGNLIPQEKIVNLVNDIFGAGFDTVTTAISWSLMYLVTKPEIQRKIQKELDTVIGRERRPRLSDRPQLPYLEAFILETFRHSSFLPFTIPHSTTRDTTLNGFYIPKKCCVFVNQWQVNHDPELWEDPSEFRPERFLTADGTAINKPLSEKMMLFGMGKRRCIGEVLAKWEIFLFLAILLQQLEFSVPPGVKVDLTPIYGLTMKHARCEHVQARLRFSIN
Outline: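 Inhibition of CYP1A2 was measured in commercially available pooled human liver microsomes (0.2 mg protein/mL) using 7-ethoxyresorufin O-deethylation with 0.5 μmol/L ethoxyresorufin. Test compound at 1, 5, 10, 20 μmol/L in […] Hepes buffer was incubated at 37° C. after NADPH addition; methanol/acetonitrile=1/1 (v/v) stopped the reaction, and resorufin was read fluorescently.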

Solubility test = format: physicochemical
Outline: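 Dissolved concentration determined by LC/MS or SPE/MS (absolute calibration) in diluted filtrates, after 2 μL of 10 mmol/L DMSO stock was added to 198 μL JP 1st or JP 2nd fluid and equilibrated either 1 h with shaking at room temperature or 16 h standing at 25 °C.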

[1] = target: T2, human ether-a-go-go related gene (hERG) channel (Homo sapiens, UniProt Q12809); assay: hERG test; format: cell-based; conditions: % inhibition of IKr tail peak current at 3 uM; CHO cells expressing hERG
T2 construct: expressed in transfected cells; host or cells: CHO cells
Outline: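 Automated whole-cell patch clamp was run on CHO cells carrying human hERG, held at −80 mV. Current was recorded during the −50 mV repolarization (2 s) that followed a 2 s +20 mV step, after a −50 mV leak pulse.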

CYP2C19 = target: T3, CYP2C19 (Homo sapiens, UniProt P33261); assay: CYP inhibition test (CYP2C19); format: in vitro ADME; conditions: pooled human liver microsomes; mephenytoin 4′-hydroxylation
T3 construct: The commercially available pooled human liver microsomes are used as an enzyme resource; from tissue; host or cells: pooled human liver microsomes
Outline: (§1)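 Metabolite formation was quantified by LC/MS/MS: dextrorphan (2D6, 5 μmol/L dextromethorphan), terfenadine alcohol (3A4, 1 μmol/L terfenadine), 4′-hydroxymephenytoin (2C19, 50 μmol/L S-mephenytoin) and hydroxytolbutamide (2C9, 100 μmol/L tolbutamide). Reactions used NADPH-started pooled human liver microsomes (0.2 mg/mL) at 37 °C with compound at 1–20 μmol/L (four points). IC50 was calculated by logistic model relative to the DMSO control.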

CYP3A4 = target: T4, CYP3A4 (Homo sapiens, UniProt P08684); assay: CYP inhibition test (CYP3A4); format: in vitro ADME; conditions: pooled human liver microsomes; terfenadine hydroxylation
T4 construct: The commercially available pooled human liver microsomes are used as an enzyme resource; from tissue; host or cells: pooled human liver microsomes
Outline: as §1

Metabolic stability test = format: in vitro ADME; conditions: human liver microsomes, 37° C., 30 minutes, NADPH
Outline: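 Parent compound was measured by LC/MS/MS or SPE/MS after a methanol/acetonitrile quench and reported as % remaining, with the 0 min sample set to 100%. Incubations ran 30 min at 37 °C in pH 7.4 Tris buffer containing pooled human liver microsomes at 0.5 mg protein/mL and 1 mmol/L NADPH.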

[2] = JP 1st fluid, 25 °C, pH 1.2, simulated gastric fluid, kinetic from dmso stock, read-out: JP1
[3] = JP 2nd fluid A, 25 °C, pH 6.8, aqueous buffer, kinetic from dmso stock, read-out: JP2_μM
[4] = JP 1st fluid, pH 1.2, simulated gastric fluid, kinetic from dmso stock, read-out: JP1
[5] = JP 2nd fluid B, pH 6.8, aqueous buffer, kinetic from dmso stock, read-out: JP2_μM
[6] = solubility in JP 2nd fluid B, 1% DMSO, *2: shaken for 1 hour at room temperature, read-out: JP2_μM
[7] = JP 2nd fluid A, pH 6.8, aqueous buffer, kinetic from dmso stock, read-out: JP2_μM

T4 sequence (P08684 whole entry): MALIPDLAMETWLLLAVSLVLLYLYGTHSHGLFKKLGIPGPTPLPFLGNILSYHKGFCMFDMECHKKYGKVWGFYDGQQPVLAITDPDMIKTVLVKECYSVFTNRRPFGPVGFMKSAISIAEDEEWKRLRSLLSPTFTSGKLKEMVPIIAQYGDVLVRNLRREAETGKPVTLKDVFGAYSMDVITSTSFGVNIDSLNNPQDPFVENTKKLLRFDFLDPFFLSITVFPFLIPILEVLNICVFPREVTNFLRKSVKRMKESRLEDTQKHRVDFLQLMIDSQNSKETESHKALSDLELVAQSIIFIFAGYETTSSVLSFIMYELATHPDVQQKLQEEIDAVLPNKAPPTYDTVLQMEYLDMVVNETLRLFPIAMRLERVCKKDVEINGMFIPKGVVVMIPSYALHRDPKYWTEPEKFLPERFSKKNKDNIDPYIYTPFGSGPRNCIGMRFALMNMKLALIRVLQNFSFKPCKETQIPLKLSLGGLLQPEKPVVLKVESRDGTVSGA
T2 sequence (Q12809 whole entry): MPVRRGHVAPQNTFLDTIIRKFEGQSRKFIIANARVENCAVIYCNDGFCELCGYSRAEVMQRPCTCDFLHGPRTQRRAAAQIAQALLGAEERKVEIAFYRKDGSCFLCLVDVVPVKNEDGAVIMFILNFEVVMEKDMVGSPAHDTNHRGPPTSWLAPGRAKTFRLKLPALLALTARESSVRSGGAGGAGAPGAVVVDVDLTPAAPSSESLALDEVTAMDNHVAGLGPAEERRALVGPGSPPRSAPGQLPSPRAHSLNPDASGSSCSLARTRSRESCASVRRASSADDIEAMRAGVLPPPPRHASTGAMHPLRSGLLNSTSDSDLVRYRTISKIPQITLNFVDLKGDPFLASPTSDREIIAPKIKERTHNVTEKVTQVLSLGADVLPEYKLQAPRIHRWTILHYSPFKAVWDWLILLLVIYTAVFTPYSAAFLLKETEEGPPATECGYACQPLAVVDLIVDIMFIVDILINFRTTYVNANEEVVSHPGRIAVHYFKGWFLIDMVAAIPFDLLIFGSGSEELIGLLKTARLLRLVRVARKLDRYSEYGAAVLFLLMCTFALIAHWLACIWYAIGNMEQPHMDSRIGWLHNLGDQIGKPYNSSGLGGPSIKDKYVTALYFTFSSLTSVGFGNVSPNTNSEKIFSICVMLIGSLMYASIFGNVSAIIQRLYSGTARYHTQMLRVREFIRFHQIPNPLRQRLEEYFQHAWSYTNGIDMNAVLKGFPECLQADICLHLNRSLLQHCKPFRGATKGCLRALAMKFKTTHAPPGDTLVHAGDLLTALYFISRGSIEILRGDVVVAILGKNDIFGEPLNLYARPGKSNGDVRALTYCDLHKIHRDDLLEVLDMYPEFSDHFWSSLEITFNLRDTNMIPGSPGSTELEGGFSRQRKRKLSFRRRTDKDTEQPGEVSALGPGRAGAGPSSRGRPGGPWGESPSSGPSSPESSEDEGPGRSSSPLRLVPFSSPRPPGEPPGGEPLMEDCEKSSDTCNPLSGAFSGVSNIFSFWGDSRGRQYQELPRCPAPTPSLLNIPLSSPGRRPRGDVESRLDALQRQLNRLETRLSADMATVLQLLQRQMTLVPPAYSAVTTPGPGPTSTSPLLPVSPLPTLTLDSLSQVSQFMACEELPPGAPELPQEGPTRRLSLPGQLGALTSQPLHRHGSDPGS
T3 sequence (P33261 whole entry): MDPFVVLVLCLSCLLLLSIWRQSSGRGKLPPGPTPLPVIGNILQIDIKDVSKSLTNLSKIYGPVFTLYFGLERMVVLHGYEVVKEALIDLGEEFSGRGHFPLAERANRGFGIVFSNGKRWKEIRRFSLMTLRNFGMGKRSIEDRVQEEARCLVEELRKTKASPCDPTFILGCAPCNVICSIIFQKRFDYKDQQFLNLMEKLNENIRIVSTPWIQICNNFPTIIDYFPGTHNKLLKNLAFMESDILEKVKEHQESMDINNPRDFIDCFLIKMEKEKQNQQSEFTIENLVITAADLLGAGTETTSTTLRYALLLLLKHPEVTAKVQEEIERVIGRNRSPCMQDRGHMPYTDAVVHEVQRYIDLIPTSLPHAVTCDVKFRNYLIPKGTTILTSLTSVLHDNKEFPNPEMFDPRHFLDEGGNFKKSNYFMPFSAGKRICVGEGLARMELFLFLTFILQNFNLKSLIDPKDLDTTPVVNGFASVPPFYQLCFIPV

Structure (SMILES) | IC50 (CYP1A2) [µM] | solubility kinetic at 16 h (Solubility test; [2]) [µM] | solubility kinetic at 16 h (Solubility test; [3]) [µM] | hERG_3 uM_% [1] [%] | IC50 (CYP2C19) [µM] | IC50 (CYP3A4) [µM] | remaining % (Metabolic stability test) [%] | solubility kinetic at 1 h (Solubility test; [4]) [µM] | solubility kinetic at 1 h (Solubility test; [5]) [µM] | solubility kinetic at 16 h (Solubility test; [6]) [µM] | solubility kinetic at 1 h (Solubility test; [7]) [µM]
C[C@H]1[C@@H](C(F)(F)F)OC(N)=N[C@]1(C)c1cc(NC(=O)c2ccc(C#N)cn2)ccc1F [Compound I-28] | ≥ 20 | 40.4 (≈ 17.6 µg/mL) | > 50 | 36.2 | ≥ 20 | ≥ 20 | – | – | – | – | –
C[C@]1(c2nc(NC(=O)c3ccc(C#N)cn3)ccc2F)N=C(N)S[C@H](CF)[C@@H]1F [Compound I-4] | ≥ 20 | 35.8 (≈ 15.1 µg/mL) | > 50 | 47.9 | ≥ 20 | ≥ 20 | – | – | – | – | –
C[C@H]1SC(N)=N[C@](C)(c2cccc(NC(=O)c3cnc(OCF)cn3)c2)[C@H]1F [Compound I-104] | ≥ 20 | – | – | – | ≥ 20 | ≥ 20 | 77.7 | 40.6 (≈ 16.5 µg/mL) | > 50 | – | –
C[C@]1(c2cc(NC(=O)c3ccc(C#N)cn3)ccc2F)N=C(N)SCC12CC(F)(F)C2 [Compound I-59] | ≥ 20 | – | – | – | ≥ 20 | – | 66.8 | > 50 | – | >50 | –
C[C@]1(c2cc(NC(=O)c3ccc(OCF)cn3)ccc2F)N=C(N)O[C@H](C2(F)CC2)[C@@H]1F [Compound I-101] | ≥ 20 | – | – | – | ≥ 20 | ≥ 20 | 91.8 | > 50 | – | >50.0 | –
COc1cnc(C(=O)Nc2cccc([C@@]3(C)N=C(N)S[C@H](C)[C@@H]3F)c2)cn1 [Compound I-103] | ≥ 20 | – | – | – | ≥ 20 | ≥ 20 | 78.3 | 49.4 (≈ 19.2 µg/mL) | > 50 | – | –
COc1cnc(C(=O)Nc2ccc(F)c([C@@]3(C)N=C(N)O[C@H]([C@H](C)F)[C@@H]3F)c2)cn1 [Compound I-17] | ≥ 20 | – | – | 19.5 | ≥ 20 | ≥ 20 | – | 33.9 (≈ 14.4 µg/mL) | – | – | > 50
C[C@]1(c2cc(NC(=O)c3ccc(C#N)cn3)ccc2F)N=C(N)O[C@H](C2(F)CC2)[C@@H]1F [Compound I-96] | ≥ 20 | – | – | – | ≥ 20 | ≥ 20 | 101 | 45.8 (≈ 19.7 µg/mL) | > 50 | – | –
CC#CCOc1cnc(C(=O)Nc2ccc(F)c([C@@]3(C)N=C(N)O[C@H](C(C)(F)F)[C@@H]3F)c2)cn1 [Compound I-76] | ≥ 20 | – | – | 5.8 | ≥ 10 | – | – | > 50 | 8.2 (≈ 3.93 µg/mL) | – | –
C[C@H]1SC(N)=N[C@](C)(c2cccc(NC(=O)c3cnc(C(F)F)cn3)c2)[C@H]1F [Compound I-106] | ≥ 20 | – | – | – | ≥ 20 | ≥ 20 | 84.1 | 42 (≈ 17.2 µg/mL) | > 50 | – | –
COc1cnc(C(=O)Nc2ccc(F)c([C@@]3(C)N=C(N)S[C@H](C)[C@@H]3F)c2)cn1 [Compound I-8] | ≥ 20 | 46.4 (≈ 18.9 µg/mL) | > 50 | 16.7 | ≥ 20 | ≥ 20 | – | – | – | – | –
COc1ccc(C(=O)Nc2ccc(F)c([C@@]3(C)N=C(N)S[C@H](C)[C@@H]3F)c2)nc1 [Compound I-50] | ≥ 20 | – | – | 34.3 | ≥ 20 | ≥ 20 | – | > 50 | – | >50 | –
C[C@H]1SC(N)=N[C@](C)(c2cc(NC(=O)c3cnc(OCC(F)F)cn3)ccc2F)[C@H]1F [Compound I-48] | ≥ 20 | – | – | – | ≥ 20 | ≥ 20 | 92.9 | > 50 | – | – | 39.5 (≈ 18.1 µg/mL)
C[C@]1(c2cc(NC(=O)c3ccc(C#N)cn3)ccc2F)N=C(N)O[C@H](CF)[C@@H]1OCC(F)(F)F [Compound I-10] | ≥ 20 | 40 (≈ 19.3 µg/mL) | > 50 | – | ≥ 20 | ≥ 20 | 95.6 | – | – | – | –
C[C@H]1[C@@H](C(F)(F)F)OC(N)=N[C@]1(C)c1cc(NC(=O)c2cnc(OCF)cn2)ccc1F [Compound I-30] | ≥ 20 | 39.2 (≈ 18 µg/mL) | > 50 | 15.1 | ≥ 20 | ≥ 20 | – | – | – | – | –
COc1cnc(C(=O)Nc2ccc(F)c([C@@]3(C)N=C(N)SCC34CC(F)(F)C4)c2)cn1 [Compound I-55] | ≥ 20 | – | – | 39.5 | ≥ 20 | ≥ 10 | – | > 50 | – | >50 | –
C[C@H]1SC(N)=N[C@](C)(c2cc(NC(=O)c3cnc(OCF)cn3)ccc2F)C12CC(F)(F)C2 [Compound I-62] | ≥ 20 | – | – | 29.6 | ≥ 20 | – | – | > 50 | – | >50 | –
C[C@]1(c2cc(NC(=O)c3ccc(C#N)cn3)ccc2F)N=C(N)O[C@H]2[C@@H]1OCC2(F)F [Compound I-35] | ≥ 20 | > 50 | > 50 | 41.1 | ≥ 20 | ≥ 20 | – | – | – | – | –
C[C@H]1SC(N)=N[C@](C)(c2nc(NC(=O)c3ccc(C#N)cn3)ccc2F)[C@H]1F [Compound I-1] | ≥ 20 | > 50 | > 50 | – | ≥ 20 | ≥ 20 | 82.4 | – | – | – | –
